Test results: US11649268B2, “Fibronectin-binding peptides for use in tumor or fibrosis diagnosis and therapy” (priority 2016, dated 2023)
“Also recorded” adds a separate entry of the source. Like-named read-outs stand apart in the source and are kept apart here. Where a SMILES comes first, the peptide text is derived from it. Primed or numbered codes have the meaning given here. Where no end group is shown, it is not given here. The star is where a group is joined. X1 = O=C(O)CN1CCN(CC(=O)O)CCN(C(CCC(=O)NCCN2C(=O)CC(*)C2=O)C(=O)O)CC1; NODAGA′ = NODAGA chelator (maleimide-conjugated) for radiolabelling; Alexa 488 = Alexa Fluor 488 fluorescent dye

Experiments:
in vivo = conditions: female, CD1 nude, mouse, iv, 150 kBq, total radioactivity
Experimental: (§1) PC-3 cells (human prostate carcinoma cell line, ACC-465, DSMZ, Braunschweig, Germany) were cultured in Roswell Park Memorial Institute 1640 medium (Amimed, Bioconcept, Switzerland). Cells were cultured as monolayers at 37° C. in a humidified atmosphere containing 5% CO2.
(§2) In vivo experiments were approved by the local veterinarian department and conducted in accordance with the Swiss law for animal protection. The 3-5 weeks-old female CD1 nude mice were purchased from Charles River (Germany). After 5-7 days acclimatisation period, the tumor cells were subcutaneously inoculated in both shoulders of the mice (3*106-1*107 cells in 100-150 μL PBS per side). Experiments were performed 3-4 weeks after inoculation.
(§3) The tissue-specific peptide pharmacokinetics, particularly in cancer stroma, were assessed in groups of 4 PC-3-bearing mice that were injected with approximately 150 kBq ^111In-FnBPA5 respectively ^111In-scraFnBPA5 (2.4 nmol/[…] PBS) into the tail vein and biodistribution of peptides was analyzed at different time points (1, 4, 24 and 96 hours post injection (p.i. and after sacrification)) by means of percentage of injected activity per gram tissue (% IA/g).

PC-3 xenografts [1] = test: In vivo blocking study with pre-injected unlabeled FnBPA5; set-up: species or system mouse; conditions: for effect of pre-injection of unlabeled FnBPA5 on accumulation: approximately 10-fold excess unlabeled FnBPA5, 4 hour post-injection
Experimental: (A) Biodistribution of FnBPA5 in PC-3 bearing mice was monitored at different time points in various organs. […] (C) Blocking studies were performed and uptake was analyzed 4 hour post-injection.
as §3

PC-3 xenografts [2] = test system: PC-3 xenografts
Experimental: as §1, §2
SPECT/CT experiments were performed using a 4-head multiplexing multipinhole camera (NanoSPECT/CTplus, Bioscan Inc., Washington D.C., USA). CT scans were performed with a tube voltage of 45 kV and a tube current of […]. SPECT scans at 24, 72 and 96 hours post injection were obtained with an acquisition time of 20-90 sec. per view resulting in a total scanning time of 20-45 min per mouse.
The distribution of ^111In-radiolabeled FnBPA5 peptide injected into the tail vein of a living mouse was monitored by means of SPECT/CT for a period of 96 hours. […] (2.4 nmol, 100 μL PBS) into the tail vein. […] SPECT images were reconstructed using HiSPECT software (Scivis GmbH, Goettingen, Germany). The images were reconstituted and processed with InVivoScope® software (BioscanInc., Washington D.C., USA) and zoom in videos were generated using Adobe Flash.
To visualize additional binding of the tracer to tissues throughout the body, the kidneys were subsequently removed from the sacrificed mice and the scan was repeated.

[3] = Experimental: To assess in vitro plasma stability 12 MBq ^111In-[FnBPA5-NODAGA] and ^111In-[scraFnBPA5-NODAGA] were incubated with 400 μL human blood plasma at 37° C. At different time points (0, 0.25, 0.5, 1, 2, 48 and 72 hours) 40 μL of plasma was taken out and precipitated by the addition of 200 μL EtOH, acetonitrile, 0.1% TFA.
soluble plasma Fn = test: Fluorescence anisotropy titration (fluorescence polarization); format: binding, human; conditions: 100 nM Alexa-488 peptide in PBS, Fn 0 to 1.4 μM, 20° C.; read-out: dissociation constant Kd to soluble plasma Fn
Sequence of soluble plasma Fn (P02751 32-290 limits assumed): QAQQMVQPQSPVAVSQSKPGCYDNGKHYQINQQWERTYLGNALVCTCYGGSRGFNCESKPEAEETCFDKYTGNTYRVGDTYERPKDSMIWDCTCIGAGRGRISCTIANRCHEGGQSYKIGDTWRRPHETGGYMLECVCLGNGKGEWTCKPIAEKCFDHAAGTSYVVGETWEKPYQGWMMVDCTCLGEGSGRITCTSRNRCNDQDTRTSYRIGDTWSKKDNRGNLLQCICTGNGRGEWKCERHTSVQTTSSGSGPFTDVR
Experimental: The binding affinities of Fn to FnBPA5 were determined in three independent measurements by anisotropy titrations in a Cary Eclipse Fluorescence Spectrophotometer (Agilent Technologies) equipped with automated polarizers. FnBPA5 and its scrambled derivative were synthesized with an N-terminal Alexa-488 dye. The anisotropy of 100 nM Alexa-488 labelled peptide was measured in PBS at Fn concentrations ranging from 0 to 1.4 μM. Excitation and emission were at λex 480 nm and λem 520 nm respectively with both slit 10 nm, 20° C., 5 s signal acquisition and g=1.4. The Kd values were determined by fitting the data to a one-site-binding model using Origin 7 (OriginLab Northampton, Mass., USA).
With higher Fn concentration an increasing amount of peptide is bound to Fn leading to a shift in fluorescence anisotropy.

[4] = test system: fibrillar Fn in fibroblast ECM; test: Binding to fibrillar Fn in fibroblast-assembled ECM (colocalization); format: cell-based; conditions: normal human dermal fibroblasts, 2 days ECM, 5 μg/ml peptide, 1 hour
Sequence of fibrillar Fn in fibroblast ECM (P02751 32-290 limits assumed): as above
Experimental: Fibroblast ECM samples (FIG. 2C) were acquired with the same microscope using an oil immersion 1.45 NA 60× objective with a pixel resolution of 1024×1024.
To achieve this, normal human dermal fibroblasts (PromoCell, Heidelberg, Germany) were cultured in alpha minimum essential medium (α-MEM) with 10% fetal bovine serum (FBS) from BioWest, Nuaillé, France, and split before reaching confluence. Cells were seeded onto Fn-coated 8-well chambered coverglasses (Lab-Tek, Nalgene Nunc, Thermo Scientific, Waltham, Mass., USA) at a density of 30×10^3 cells per cm^2 and allowed to attach to the surface before medium exchange to medium containing 50 μg/ml unlabeled Fn. Cells were cultured for 48 hours. Fibronectin was then stained using a rabbit polyclonal anti-fibronectin antibody (ab23750, abcam, Cambridge, UK) and 5 μg/ml FnBPA5-Alexa488 respectively scr-FnBPA5-Alexa488 peptide for 1 hour before fixation with a 4% paraformaldehyde solution in PBS. After fixation cells were permeabilized for 10 minutes with PBS containing 0.01% Triton X-100. After a washing step samples were blocked in 4% BSA and 4% donkey serum for 1 hour at room temperature. Samples were then incubated for 1 hour with a donkey anti-rabbit Alexa 546 (Invitrogen) secondary antibody and Phalloidin-633 (Invitrogen, Carlsbad, Calif., USA). Before imaging cell nuclei were stained using DAPI. […]

[5] = test system: manually pulled relaxed Fn fibers (fibrillar Fn); test: Manually pulled Fn fiber binding assay (confocal microscopy); set-up: species or system human; conditions: for binding to manually pulled Fn fibers (peptide signal): confocal microscopy, peptide signal vs Fn-Cy5
Sequence of manually pulled relaxed Fn fibers (fibrillar Fn) (P02751 32-290 limits assumed): as above
Excerpt: Manually pulled Fn fibers were used as a model system for fibrillar Fn as described previously (W. C. Little, M. L. Smith, U. Ebneter, and V. Vogel, “Assay to mechanically tune and optically probe fibrillar fibronectin conformations from fully relaxed to breakage,” Matrix Biology, vol. 27, no. 5, pp. 451-461, June 2008). Fibers containing 5% of photolabeled Fn-Cy5 were deposited onto a stretchable silicone sheet, relaxed to half of their original length, corresponding to a total 7% molecular strain and after a blocking step with 4% bovine serum albumin in PBS, they were incubated with different concentrations of Alexa488 fluorescently labeled FnBPA5 to obtain a binding curve.
Manually pulled Fn fiber samples were imaged with an Olympus FV1000 confocal microscope using a 40× water immersion objective with a numerical aperture of 0.9. Alexa488-FnBPA5 and Fn-Cy5 channels were imaged with a 512×512 pixel resolution and photomultiplier tube voltage and laser powers were kept constant within an experiment.
Images were analyzed using Fiji-ImageJ and Matlab (MathWorks, Natick, Mass., USA). […] Dark current values were subtracted from images and pixels with intensities below a cutoff threshold and at saturation were excluded from analysis. Approximately 10 fibers were imaged per experimental condition and each of these conditions was done in triplicate. […] Data points were fit using the Hill model assuming non-cooperative binding (using the below equation) and plot using Origin.
To assess binding constant of Alexa488-FnBPA5 and of its scrambled analogue to Fn fibers a fiber stretch assay as described above and before (Little et al., Matrix Biology, vol. 27, no. 5, pp. 451-461, June 2008) was used. Fn fibers are manually pulled from a Fn solution containing 5% fluorophore labeled Fn and deposited onto a silicone membrane. Silicone membranes can then be stretched or relaxed to desired mechanical strain state.
Peptide fluorescence intensity normalized against the Cy5-intensity from the Fn-fibers for different peptide concentrations was assessed. Intensity ratio of 10 μM FnBPA5-488 was defined as saturated and all other intensity ratios were normalized with this factor.

N-terminal Fn fragments = N-terminal Fn fragments (Homo sapiens, UniProt P02751); conditions: literature value, Meenan et al. 2007; read-out: Kd to N-terminal Fn fragments in solution; cited from earlier work
Sequence of N-terminal Fn fragments (P02751 52-272 limits assumed): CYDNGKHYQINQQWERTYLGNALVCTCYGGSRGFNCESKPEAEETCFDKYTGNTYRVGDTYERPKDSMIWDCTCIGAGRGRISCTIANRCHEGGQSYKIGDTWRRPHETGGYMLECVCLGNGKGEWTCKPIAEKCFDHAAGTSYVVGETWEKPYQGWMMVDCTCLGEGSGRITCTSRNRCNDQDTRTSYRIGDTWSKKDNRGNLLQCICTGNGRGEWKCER

relaxed Fn fibers = test: Displacement assay on manually pulled Fn fibers against FnBPA5-Alexa488; format: binding, human; conditions: cold labeled competitor
Sequence of relaxed Fn fibers (P02751 95-273 limits assumed): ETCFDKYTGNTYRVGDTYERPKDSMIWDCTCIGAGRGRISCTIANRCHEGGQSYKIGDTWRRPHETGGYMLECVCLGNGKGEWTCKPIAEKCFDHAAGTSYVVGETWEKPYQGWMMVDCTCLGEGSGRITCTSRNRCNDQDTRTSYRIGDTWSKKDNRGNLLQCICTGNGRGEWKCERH
Experimental: Relaxed Fn fibers were incubated with FnBPA5-Alexa488 peptide, washed and then incubated with different concentrations of FnBPA5-In to measure the concentration of competitor.
To assess whether the presence of the chelator for the radiolabeled ^111In-isotope impairs FnBPA5 binding to manually pulled Fn fibers, a displacement assay was performed using ^natIn-FnBPA5 (cold labeled) against FnBPA5-Alexa488.

[6] = 96 hours post injection, 12 MBq, tail vein
[7] = 96 hours post injection, kidneys removed

| Molecule | effect of pre-injection of unlabeled FnBPA5 on accumulation (PC-3 xenografts [1]) | SPECT/CT kidney uptake (PC-3 xenografts [2]; [6]) | SPECT/CT uptake in other organs after kidney removal (PC-3 xenografts [2]; [7]) | SPECT/CT kidney uptake (PC-3 xenografts [2]; mouse, in vivo) | SPECT/CT uptake in other organs after kidney removal (PC-3 xenografts [2]; mouse, in vivo) | Kd (soluble plasma Fn) | binding to fibrillar Fn in fibroblast ECM [4] | binding to manually pulled Fn fibers (peptide signal) [5] | other results |
| --- | --- | --- | --- | --- | --- | --- | --- | --- | --- |
| CC[C@H](C)[C@H](NC(=O)CNC(=O)[C@H](CCCCN)NC(=O)[C@@H](NC(=O)[C@H](CO)NC(=O)[C@H](CCC(=O)O)NC(=O)[C@H](CCC(=O)O)NC(=O)[C@H](CC(=O)O)NC(=O)[C@H](Cc1ccccc1)NC(=O)[C@H](CCC(=O)O)NC(=O)[C@@H](NC(=O)[C@H](CC(C)C)NC(=O)[C@H](CC(N)=O)NC(=O)[C@H](CO)NC(=O)[C@H](CCC(=O)O)NC(=O)[C@@H](NC(=O)[C@@H](NC(=O)[C@@H](NC(=O)[C@H](CCC(N)=O)NC(=O)CNC(=O)CNC(=O)CNC(=O)[C@@H](N)CSC1CC(=O)N(CCNC(=O)CCC(C(=O)O)N2CCN(CC(=O)O)CCN(CC(=O)O)CC2)C1=O)C(C)C)[C@@H](C)O)[C@@H](C)O)C(C)C)[C@@H](C)O)C(=O)N[C@H](C(=O)N[C@H](C(=O)NCC(=O)N[C@@H](C)C(=O)N[C@H](C(=O)N[C@@H](CO)C(=O)N[C@@H](CC(=O)O)C(=O)N[C@@H](Cc1c[nH]cn1)C(=O)N[C@H](C(=O)N[C@H](C(=O)N[C@H](C(=O)N[C@@H](CCC(=O)O)C(=O)N[C@@H](CC(=O)O)C(=O)N[C@H](C(=O)N[C@@H](CCCCN)C(=O)O)[C@@H](C)O)C(C)C)[C@@H](C)O)[C@@H](C)O)C(C)C)[C@@H](C)O)C(C)C (stereo partly drawn) [^111In-FnBPA5, metal not drawn] (H-C(X1)GGGQVTTESNLVEFDEESTKGIVTGAVSDHTTVEDTK-OH; N-terminus and C-terminus assumed) | significant reduction in the uptake of ^111In-FnBPA5 in both liver and tumor | mainly accumulated in the kidneys | predominant uptake in tumor and liver | – | – | – | – | – | tissue uptake at 1 h (in vivo; kidney accumulation, kidneys, 1 hour p.i. (maximum)): 141 ± 18.1 %ID/g; tissue uptake at 1 h (in vivo; tumor uptake, PC-3 tumor, 1 h p.i. (maximum)): 4.74 ± 0.77 %ID/g; uptake decrease in liver by blocking (PC-3 xenografts [1]; pre-injection of 100 μg unlabeled FnBPA5, 4 hour post-injection, liver): 58.2%; uptake decrease in tumor tissue by blocking (PC-3 xenografts [1]; pre-injection of 100 μg unlabeled FnBPA5, 4 hour post-injection, tumor): 35.6%; plasma stability, peptide intact ([3]; human blood plasma, 37° C., after 72 hours): still intact |
| CC[C@H](C)[C@H](NC(=O)[C@@H](NC(=O)[C@H](CCC(=O)O)NC(=O)CNC(=O)[C@H](Cc1ccccc1)NC(=O)[C@H](CC(=O)O)NC(=O)[C@@H](NC(=O)[C@H](CCCCN)NC(=O)[C@@H](NC(=O)CNC(=O)[C@@H](NC(=O)[C@H](CC(C)C)NC(=O)[C@H](CC(=O)O)NC(=O)[C@H](CCC(=O)O)NC(=O)[C@H](CCC(N)=O)NC(=O)[C@H](CCC(=O)O)NC(=O)[C@H](CO)NC(=O)CNC(=O)[C@@H](N)CSC1CC(=O)N(CCNC(=O)CCC(C(=O)O)N2CCN(CC(=O)O)CCN(CC(=O)O)CC2)C1=O)[C@@H](C)O)[C@@H](C)O)C(C)C)[C@@H](C)O)C(=O)N[C@H](C(=O)N[C@H](C(=O)N[C@@H](CC(N)=O)C(=O)N[C@@H](CCC(=O)O)C(=O)N[C@@H](C)C(=O)N[C@H](C(=O)N[C@@H](CCC(=O)O)C(=O)N[C@H](C(=O)N[C@H](C(=O)N[C@H](C(=O)N[C@@H](CO)C(=O)NCC(=O)N[C@@H](CO)C(=O)N[C@H](C(=O)N[C@@H](Cc1c[nH]cn1)C(=O)NCC(=O)N[C@H](C(=O)N[C@@H](CCCCN)C(=O)N[C@H](C(=O)O)C(C)C)[C@@H](C)O)[C@@H](C)O)[C@@H](C)O)C(C)C)[C@@H](C)O)[C@@H](C)O)C(C)C)C(C)C (stereo partly drawn) [^111In-scraFnBPA5, metal not drawn, reference compound] (H-C(X1)GSEQEDLTGTKVDFGETIVVNEATETVTSGSTHGTKV-OH; N-terminus and C-terminus assumed) | no significant differences | – | – | mainly accumulated in the kidneys | no uptake into other tissues was visible | – | – | – | tissue uptake at 1 h (in vivo; kidney accumulation): 164 ± 18.9 %ID/g |
| Alexa 488-FnBPA5: FnBPA5 with N-terminal Alexa-488 dye ({Alexa 488}-CGGGQVTTESNLVEFDEESTKGIVTGAVSDHTTVEDTK) | – | – | – | – | – | 75 nM | – | – | – |
| CGGGQVTTESNLVEFDEESTKGIVTGAVSDHTTVEDTK [FnBPA5] | – | dominant kidney uptake | uptake in tumors and liver | – | – | 75 nM | specific binding | specific peptide binding; also recorded: significantly higher binding; also recorded: much stronger than the scrambled control derivative | Kd ([5]; relaxed fibers, 7% molecular strain, Alexa488-labelled peptide, Hill fit, read-out: dissociation constant Kd to manually pulled relaxed Fn fibers): 28 nM; Kd (N-terminal Fn fragments): 44.2 nM; plasma stability ([3]; 37° C., blood plasma and water, 1 hour time point): high stability |
| ^natIn-FnBPA5: Cold labeled (natural indium) chelator-conjugated FnBPA5 (C(NODAGA′)GGGQVTTESNLVEFDEESTKGIVTGAVSDHTTVEDTK; also: natural indium complexed by chelator) | – | – | – | – | – | – | – | – | IC50 (relaxed Fn fibers): 49 nM |
| scraFnBPA5: Negative control of FnBPA5 with scrambled sequence (SEQ ID NO 296) (CGSEQEDLTGTKVDFGETIVVNEATETVTSGSTHGTKV) [reference compound] | – | – | – | dominant kidney uptake | does not show any specific uptake in other organs | – | unspecificly attached to the matrix | within the background noise | plasma stability [3]: high stability |
